Literature values in patent publication US20190125940A1, “STENTS FOR THE RELEASE OF ACTIVE PRINCIPLES” (CID S.p.A., priority 2016, published 2019).

Conditions: related to complete in vitro release at 30 hours; Eurointervention 2012; 7:1087-1094

For `CO[C@H]1C[C@@H]2CC[C@@H](C)[C@@](O)(O2)C(=O)C(=O)N2CCCC[C@H]2C(=O)O[C@H]([C@H](C)C[C@@H]2CC[C@@H](O)[C@H](OC)C2)CC(=O)[C@H](C)/C=C(\C)[C@@H](O)[C@@H](OC)C(=O)[C@H](C)C[C@H](C)/C=C/C=C/C=C/1C` [Sirolimus], the “in vivo release after coronary implantation” value is given as “greater than 30 days”.
